# From patent US7776872B2, “Diaminopyrimidines as P2X3 and P2X2/3 modulators” (Roche Palo Alto LLC, priority 2005, dated 2010)
# Columns and labels:
# rat P2X3 receptor = target: T1, rat P2X3 receptor (Rattus norvegicus, UniProt P49654); test: P2X3 FLIPR (Fluorometric Imaging Plate Reader) assay, CHO-K1 cells; format: cell-based; conditions: CHO-K1 cells transfected with rat P2X3; agonist α,β-meATP 1 μM; Fluo-3 calcium fluorescence
# T1 construct: expressed in transfected cells; host or cells: CHO-K1
# T1 sequence (P49654 1-397): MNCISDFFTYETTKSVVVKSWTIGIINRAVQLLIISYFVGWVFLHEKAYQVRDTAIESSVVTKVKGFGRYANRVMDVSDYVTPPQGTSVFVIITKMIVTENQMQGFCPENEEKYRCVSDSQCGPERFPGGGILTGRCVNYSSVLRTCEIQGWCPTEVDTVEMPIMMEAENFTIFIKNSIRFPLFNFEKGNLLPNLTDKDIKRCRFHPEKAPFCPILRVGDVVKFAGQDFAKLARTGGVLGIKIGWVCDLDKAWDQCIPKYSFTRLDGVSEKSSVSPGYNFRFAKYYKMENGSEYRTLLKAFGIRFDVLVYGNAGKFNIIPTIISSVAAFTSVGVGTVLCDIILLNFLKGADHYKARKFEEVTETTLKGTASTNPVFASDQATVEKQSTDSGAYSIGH
# Method: (§1) CHO-K1 cells were transfected with cloned rat P2X3 or human P2X2/3 receptor subunits and passaged in flasks. 18-24 hours before the FLIPR experiment, cells were released from their flasks, centrifuged, and resuspended in nutrient medium at 2.5×10^5 cells/ml. The cells were aliquoted into black-walled 96-well plates at a density of 50,000 cells/well and incubated overnight in 5% CO2 at 37° C. On the day of the experiment, cells were washed in FLIPR buffer (calcium- and magnesium-free Hank's balanced salt solution, 10 mM HEPES, 2 mM CaCl2, 2.5 mM probenecid; FB). Each well received 100 μl FB and 100 μl of the fluorescent dye Fluo-3 AM [2 μM final conc.]. […]
# (§2) Test compounds (dissolved in DMSO at 10 mM and serially diluted with FB) or vehicle were added to each well (25 μl of a 4X solution) and allowed to equilibrate for 20 minutes at room temperature. The plates were then placed in the FLIPR and a baseline fluorescence measurement (excitation at 488 nm and emission at 510-570 nm) was obtained for 10 seconds before a 100 µl/well agonist or vehicle addition. […] Fluorescence was measured for an additional 2 minutes at 1 second intervals after agonist addition. A final addition of ionomycin (5 μM, final concentration) was made to each well of the FLIPR test plate to establish cell viability and maximum fluorescence of dye-bound cytosolic calcium. […]
# human P2X2/3 receptor = target: T2, human P2X2/3 receptor (Homo sapiens, UniProt P56373+Q9UBL9); test: P2X2/3 FLIPR (Fluorometric Imaging Plate Reader) assay, CHO-K1 cells; format: cell-based; conditions: CHO-K1 cells transfected with human P2X2/3; agonist α,β-meATP 5 μM; Fluo-3 calcium fluorescence
# T2 construct: expressed in transfected cells; host or cells: CHO-K1
# T2 sequence (Q9UBL9 1-471): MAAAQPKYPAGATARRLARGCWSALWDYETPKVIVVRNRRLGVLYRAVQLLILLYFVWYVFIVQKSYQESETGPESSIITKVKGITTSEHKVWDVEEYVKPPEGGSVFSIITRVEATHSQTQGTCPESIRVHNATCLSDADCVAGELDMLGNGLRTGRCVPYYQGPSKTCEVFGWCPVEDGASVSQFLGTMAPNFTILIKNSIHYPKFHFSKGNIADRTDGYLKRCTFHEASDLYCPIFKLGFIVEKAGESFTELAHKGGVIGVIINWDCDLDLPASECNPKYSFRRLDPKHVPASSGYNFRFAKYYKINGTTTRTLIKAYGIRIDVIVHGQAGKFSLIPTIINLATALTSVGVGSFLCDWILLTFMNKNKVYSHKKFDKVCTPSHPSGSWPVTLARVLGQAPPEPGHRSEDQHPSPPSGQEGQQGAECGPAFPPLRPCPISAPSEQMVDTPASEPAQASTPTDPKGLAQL
# T2 sequence (P56373 1-397): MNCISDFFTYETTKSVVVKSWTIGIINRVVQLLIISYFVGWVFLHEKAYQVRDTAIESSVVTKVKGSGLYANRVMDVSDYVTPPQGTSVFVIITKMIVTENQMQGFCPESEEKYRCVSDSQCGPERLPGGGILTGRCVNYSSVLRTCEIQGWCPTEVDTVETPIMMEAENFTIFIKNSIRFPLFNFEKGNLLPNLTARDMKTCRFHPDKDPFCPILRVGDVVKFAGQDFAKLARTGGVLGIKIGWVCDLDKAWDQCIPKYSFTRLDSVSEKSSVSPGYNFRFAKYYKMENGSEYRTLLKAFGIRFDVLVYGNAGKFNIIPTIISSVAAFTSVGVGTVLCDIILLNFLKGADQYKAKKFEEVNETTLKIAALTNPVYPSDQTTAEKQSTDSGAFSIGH
# Method: as §1, §2
melting point [°C],pIC50 for the P2X3 receptor (rat P2X3 receptor),pIC50 for the P2X2/3 receptor (human P2X2/3 receptor),Compound
276.3 to 278,,,"CC(C)c1cc2cccnc2cc1Oc1cnc(N)nc1N [Compound 9, 5-(6-lsopropyl-quinolin-7-yloxy)-pyrimidine-2,4-diamine]"
171.9 to 174.4,,,"CC(C)c1cc2ncccc2cc1Oc1cnc(NC(CO)CO)nc1N [Compound 11, 2-[4-Amino-5-(7-isopropyl-quinolin-6-yloxy)-pyrimidin-2-ylamino]-propane-1,3-diol]"

# Continued, molecule first:
Compound,melting point [°C],pIC50 for the P2X3 receptor (rat P2X3 receptor),pIC50 for the P2X2/3 receptor (human P2X2/3 receptor)
"COc1ccc2cc(Oc3cnc(N)nc3N)c(C(C)C)cc2c1 [Compound 4, 5-(3-Isopropyl-6-methoxy-naphthalen-2-yloxy)-pyrimidine-2,4-diamine]",170 to 172,,
"Cc1cccc2cc(C(C)C)c(Oc3cnc(N)nc3N)cc12 [Compound 1, 5(3-Isopropyl-8-methyl-naphthalen-2-yloxy)-pyrimidine-2,4-diamine]",148,,
"CC(C)c1cc2ncccc2cc1Oc1cnc(N)nc1N [5-(7-Isopropyl-quinolin-6-yloxy)-pyrimidine-2,4-diamine]",206.9 to 208.2,approximately 7.42,approximately 7.30
